According to patent US20030186980A1, “Anthelmintic agents for preventing parasitic infections in humans and animals III” (priority 2000, published 2003):

How the values were obtained:
[1] = tested on: Schistosoma mansoni cercariae; assay: Activity against Schistosoma mansoni cercariae (survival/mobility observed with a stereomagnifier); design: key: no effect during the entire test period of 120 minutes; 1: weak effect (the cercariae have a strongly reduced mobility); 2: good effect (the cercariae are only slightly mobile and bent); 3: full effect (the cercariae are completely immobile); conditions: 500 μl/l final concentration of active compound; PEG300/aquarium water; test period of 120 minutes; about 100 to 150 cercariae per batch
Experimental: [500 μl/l final concentration of the active compounds] Snails (Biomphalaria glabrata) were infected by incubating each of them with 8 miracidia in 10 ml of water overnight. About 6 to 9 weeks after the infection, cercariae were obtained by irradiating the snails, which had been kept in darkness, with light, followed by collection of the swarming cercariae within 2 hours.
Such an amount of cercariae-containing water (1 or 2 ml, see below) was added to the test batches that each batch contained about 100 to 150 cercariae.
5 μl of active compound were mixed thoroughly with 25 μl of PEG300. 9 ml of aquarium water was then added, and the batch was shaken vigorously. After (delayed) addition of 1 ml of cercariae suspension, survival of the cercariae was in each case observed immediately using a stereomagnifier.

[2] = tested on: cercariae of Schistosoma mansoni; conditions: Fripp and Armstrong 1973; cited from earlier work
[3] = tested on: cercariae of Schistosoma mansoni; conditions: topical; Salafsky et al. 1998; cited from earlier work
[4] = tested on: cercariae of Schistosoma mansoni; conditions: topical, monkeys; Bruce et al. 1992; cited from earlier work

CCC(C)N(C)C(=O)N1CC(C)OC(C)C1 (stereo not shown)
activity rating against Schistosoma mansoni cercariae [1]: 1

Oc1c(Cl)cc(Cl)c(Cl)c1Cc1c(O)c(Cl)cc(Cl)c1Cl [hexachlorophene]
effect on cercariae of Schistosoma mansoni [2]: lethal effect

CCN(CC)C(=O)c1cccc(C)c1 [N,N-Diethyl-m-toluamide (DEET), N,N-Diethyl-m-toluamide]
action against cercariae of Schistosoma mansoni [3]: acts against cercariae

O=C(Nc1ccc([N+](=O)[O-])cc1Cl)c1cc(Cl)ccc1O [Niclosamide]
action against the penetration of cercariae [4]: acts against the penetration of cercariae
